According to paper PMC4207401, “A Novel Inhibitor of Mammalian Triosephosphate Isomerase Found by an In Silico Approach” (International Journal of Medicinal Chemistry, 2014):
Like-named read-outs stand apart in the source and are kept apart here.

Biological target: T1, triosephosphate isomerase (rabbit muscle TIM) (Oryctolagus cuniculus, UniProt P00939)
T1 construct: gene TPI1; native enzyme from rabbit muscle, commercial reagent (Sigma-Aldrich); homodimer; 1R2R is the rabbit TIM structure used for docking
Test: coupled assay with alpha-glycerophosphate dehydrogenase, NADH at […] nm
Format: biochemical

T1 sequence (P00939 2-249): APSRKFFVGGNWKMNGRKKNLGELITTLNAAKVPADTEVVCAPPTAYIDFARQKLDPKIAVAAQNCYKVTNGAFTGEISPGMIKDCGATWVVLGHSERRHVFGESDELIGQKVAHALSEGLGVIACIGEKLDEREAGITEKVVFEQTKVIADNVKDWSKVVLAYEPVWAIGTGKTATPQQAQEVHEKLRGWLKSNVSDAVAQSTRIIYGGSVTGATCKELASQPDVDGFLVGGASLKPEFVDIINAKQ

Row | Ki (glyceraldehyde-3-phosphate 0.4 mM (= Km), NADH 0.1 mM, pH 8.0, Ki calculated from IC50 by Ki = Kapp/(1 + [S]/Km), read-out: 2) [µM] | Ki (read-out: K i) [µM] | Compound
1 | > 440 |  | O=C1C2=C(Nc3[nH]c(=O)[nH]c(=O)c3[C@H]2c2ccccc2)c2ccccc21 [compound 2, Compound 2]
2 |  | 44 | Nc1nc2c(c(=O)[nH]1)C(c1ccccc1)C1=C(N2)c2ccccc2C1=O (racemic) [compound 1, 2-amino-5-phenyl-3H-indeno[2′,1′:5,6]pyrido[2,3-d]pyrimidine-4,6(5H,11H)-dione]
